Eight compounds from publication PMC7126831 (Bioorganic & Medicinal Chemistry, 2013) can be followed below.

The target in this test is SARS-CoV PLpro (Severe acute respiratory syndrome coronavirus, UniProt P0C6U8). Briefly: biochemical. Type of test: biochemical.
`COc1cc([C@H]2Oc3cc4c(c(O)c3C(=O)[C@@H]2O)CCC(C)(CCCC(C)(C)O)O4)ccc1O` (stereo partly drawn) [Compound 5, (2R,3R)-3,5-dihydroxy-2-(4-hydroxy-3-methoxyphenyl)-8-(4-hydroxy-4-methylpentyl)-8-methyl-2,3,7,8-tetrahydropyrano[3,2-g]chromen-4(6H)-one]: the Kinetic mode entry is reported as “Mixed (3.7)”.

Regarding `COc1cc([C@H]2Oc3cc(O)c(C/C=C(\C)CCC=C(C)C)c(O)c3C(=O)[C@@H]2O)ccc1O` [Compound 6, 3′-O-methyldiplacol], the Kinetic mode entry is recorded as “Mixed (6.6)”. Still for that read-out and setting: as for `COc1cc([C@@H]2CC(=O)c3c(cc(O)c(C/C=C(\C)CCC=C(C)C)c3O)O2)ccc1O` [Compound 8, 3′-O-methyldiplacone], the entry is “Mixed (7.1)”. Regarding `COc1cc(C2CC(=O)c3c(cc(O)c(C/C=C(\C)CCC=C(C)C)c3O)O2)cc(OC)c1O` (centres unmarked) [Compound 12, 6-geranyl-4′,5,7-trihydroxy-3′,5′-dimethoxyflavanone], the midpoint of inhibition, the IC50, lay at 13.9 ± 0.18 µM. On to `COc1cc([C@@H]2CC(=O)c3c(cc4c(c3O)CCC(C)(CCCC(C)(C)O)O4)O2)cc(O)c1OC` (stereo partly drawn) [Compound 3, (2S)-5-hydroxy-2-(5-hydroxy-3,4-dimethoxyphenyl)-8-(4-hydroxy-4-methylpentyl)-8-methyl-2,3,7,8-tetrahydropyrano[3,2-g]chromen-4(6H)-one], for which the Kinetic mode result is given as “Mixed (5.0)”. Regarding `COc1ccc([C@H]2Oc3cc(O)c(C/C=C(\C)CCC=C(C)C)c(O)c3C(=O)[C@@H]2O)cc1O` [Compound 7, 4′-O-methyldiplacol], the Kinetic mode entry is “Mixed (6.3)”. The same measure, in the same setting: the result for `COc1cc([C@@H]2CC(=O)c3c(cc4c(c3O)CCC(C)(CCCC(C)(C)O)O4)O2)cc(OC)c1O` (stereo partly drawn) [Compound 4, (2S)-5-hydroxy-2-(4-hydroxy-3,5-dimethoxyphenyl)-8-(4-hydroxy-4-methylpentyl)-8-methyl-2,3,7,8-tetrahydropyrano[3,2-g]chromen-4(6H)-one] reads “Mixed (13.0)”; that for `CC(C)(O)CCCC1(C)CCc2c(cc3c(c2O)C(=O)C[C@@H](c2ccc(O)c(O)c2)O3)O1` (stereo partly drawn) [Compound 1, (2S)-2-(3,4-dihydroxyphenyl)-5-hydroxy-8-(4-hydroxy-4-methylpentyl)-8-methyl-2,3,7,8-tetrahydropyrano[3,2-g]chromen-4(6H)-one], “Mixed (4.8)”.
